Columns and labels:
Assay type in all cases: in vivo
[1] = test system: blackgrass (Alopecurus myosuroides); assay: Test A1 preemergence, blackgrass
Procedure, shortened: (§1)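 Herbicidal response was scored on plants treated either preemergence, by directed spray onto soil of a loam–sand blend after sowing, or postemergence on potted plants at the one- to two-leaf stage, 2–10 cm high. Test chemicals were carried in a non-phytotoxic solvent mix with surfactant.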

corn (Zea mays) [2] = assay: Test A1 preemergence, corn
Procedure, shortened: as §1

[3] = test system: Foxtail, Giant (giant foxtail, Setaria faberi); assay: Test A1 preemergence, Foxtail, Giant
Procedure, shortened: as §1

[4] = test system: goosegrass (Eleusine indica); assay: Test A1 preemergence, goosegrass
Procedure, shortened: as §1

kochia (Bassia scoparia) [5] = assay: Test A1 preemergence, kochia
Procedure, shortened: as §1

[6] = test system: Oat, Wild (wild oat, Avena fatua); assay: Test A1 preemergence, Oat, Wild
Procedure, shortened: as §1

[7] = test system: Pigweed, Palmer (palmer amaranth, palmer pigweed, Amaranthus palmeri); assay: Test A1 preemergence, Pigweed, Palmer
Procedure, shortened: as §1

[8] = test system: ragweed (common ragweed, Ambrosia artemisiifolia); assay: Test A1 preemergence, ragweed
Procedure, shortened: as §1

[9] = test system: Ryegrass, Italian (Italian ryegrass, Lolium multiflorum); assay: Test A1 preemergence, Ryegrass, Italian
Procedure, shortened: as §1

soybean (Glycine max) [10] = assay: Test A1 preemergence, soybean
Procedure, shortened: as §1

[11] = test system: wheat (Triticum aestivum); assay: Test A1 preemergence, wheat
Procedure, shortened: as §1

corn (Zea mays) [12] = assay: Test A1 postemergence, corn; details: for Plant response rating, Corn: Postemergence
Procedure, shortened: as §1

[13] = test system: Foxtail, Giant (giant foxtail, Setaria faberi); assay: Test A1 postemergence, Foxtail, Giant; details: for Plant response rating, Foxtail, Giant: Postemergence
Procedure, shortened: (§2)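 Both timings started from seed in a loam-sand blend. Preemergence pots got a directed soil application immediately; postemergence pots were sprayed when seedlings had one or two leaves and stood 2–10 cm. Each compound was prepared in a non-phytotoxic solvent plus surfactant.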

[14] = test system: goosegrass (Eleusine indica); assay: Test A1 postemergence, goosegrass; details: for Plant response rating, Goosegrass: Postemergence
Procedure, shortened: as §2

kochia (Bassia scoparia) [15] = assay: Test A1 postemergence, kochia; details: for Plant response rating, Kochia: Postemergence
Procedure, shortened: as §2

[16] = test system: Oat, Wild (wild oat, Avena fatua); assay: Test A1 postemergence, Oat, Wild; details: for Plant response rating, Oat, Wild: Postemergence
Procedure, shortened: as §1

[17] = test system: Pigweed, Palmer (palmer amaranth, palmer pigweed, Amaranthus palmeri); assay: Test A1 postemergence, Pigweed, Palmer; details: for Plant response rating, Pigweed, Palmer: Postemergence
Procedure, shortened: as §1

[18] = test system: ragweed (common ragweed, Ambrosia artemisiifolia); assay: Test A1 postemergence, ragweed; details: for Plant response rating, Ragweed: Postemergence
Procedure, shortened: as §1

[19] = test system: Ryegrass, Italian (Italian ryegrass, Lolium multiflorum); assay: Test A1 postemergence, Ryegrass, Italian; details: for Plant response rating, Ryegrass, Italian: Postemergence
Procedure, shortened: as §2

soybean (Glycine max) [20] = assay: Test A1 postemergence, soybean; details: for Plant response rating, Soybean: Postemergence
Procedure, shortened: as §2

[21] = test system: wheat (Triticum aestivum); assay: Test A1 postemergence, wheat; details: for Plant response rating, Wheat: Postemergence
Procedure, shortened: as §2

[22] = test system: galium (catchweed bedstraw, Galium aparine); assay: Test A1 postemergence, galium; details: for Plant response rating, Galium: Postemergence
Procedure, shortened: as §2

[23] = test system: horseweed (Erigeron canadensis); assay: Test A1 postemergence, horseweed; details: for Plant response rating, Horseweed: Postemergence
Description: Seeds of plant species selected from, blackgrass (Alopecurus myosuroides), corn (Zea mays), Foxtail, Giant (giant foxtail, Setaria faberi), goosegrass (Eleusine indica), kochia (Bassia scoparia), Oat, Wild (wild oat, Avena fatua), Pigweed, Palmer (palmer amaranth, palmer pigweed, Amaranthus palmeri), ragweed (common ragweed, Ambrosia artemisiifolia), Ryegrass, Italian (Italian ryegrass, Lolium multiflorum), soybean (Glycine max), and wheat (Triticum aestivum) were planted into a blend of loam soil and sand and treated preemergence with a directed soil spray using test chemicals formulated in a non-phytotoxic solvent mixture which included a surfactant. At the same time, plants selected from these crop and weed species and also galium (catchweed bedstraw, Galium aparine) and horseweed (Erigeron canadensis) were planted in pots containing the same blend of loam soil and sand and treated with postemergence applications of test chemicals formulated in the same manner. Plants ranged in height from 2 to 10 cm and were in the one- to two-leaf stage for the postemergence treatment. […] A dash (-) response means no test result.

[24] = test system: barnyardgrass (Echinochloa crus-galli); assay: Test B1 flooded paddy test, barnyardgrass; details: 250 g ai/ha, Flood, applied to paddy water, 2-leaf stage, visually evaluated after 10 to 14 days
Description: (§3) A dash (-) response means no test result.

[25] = test system: ducksalad (Heteranthera limosa); assay: Test B1 flooded paddy test, ducksalad; details: 250 g ai/ha, Flood, applied to paddy water, 2-leaf stage, visually evaluated after 10 to 14 days
Description: as §3

rice (Oryza sativa) = assay: Test B1 flooded paddy test, rice; details: 250 g ai/ha, Flood, applied to paddy water, 2-leaf stage, visually evaluated after 10 to 14 days
Description: as §3

[26] = test system: blackgrass (Alopecurus myosuroides); assay: Test A1 postemergence, blackgrass; details: 0 to 100 scale (0 no effect, 100 complete control)
Procedure, shortened: as §2

[27] = 31 g ai/ha, 0 to 100 scale (0 no effect, 100 complete control)
[28] = 125 g ai/ha, 0 to 100 scale, 0 no effect, 100 complete control
[29] = 31 g ai/ha, 0 to 100 scale (0 no effect, 100 complete control), 10 days
[30] = 31 g ai/ha, postemergence, 0 to 100 scale (0 no effect, 100 complete control)
[31] = 125 g ai/ha, 0 to 100 scale (0 no effect, 100 complete control), 10 days

Compound: Cc1cc(Br)c(NS(=O)(=O)C(F)(F)F)cc1C1=NOC2(CCCC2)C1 [Compound 309]
- Plant response rating, Blackgrass [1, 27]: 30
- Plant response rating, Blackgrass [1, 28]: 60
- Plant response rating, Corn (corn (Zea mays) [2]; [27]): 0
- Plant response rating, Corn (corn (Zea mays) [2]; [28]): 0
- Plant response rating, Foxtail, Giant [3, 27]: 60
- Plant response rating, Foxtail, Giant [3, 28]: 90
- Plant response rating, Goosegrass [4, 27]: 50
- Plant response rating, Goosegrass [4, 28]: 100
- Plant response rating, Kochia (kochia (Bassia scoparia) [5]; [27]): 0
- Plant response rating, Kochia (kochia (Bassia scoparia) [5]; [28]): 50
- Plant response rating, Oat, Wild [6, 27]: 20
- Plant response rating, Oat, Wild [6, 28]: 60
- Plant response rating, Pigweed, Palmer [7, 27]: 40
- Plant response rating, Pigweed, Palmer [7, 28]: 40
- Plant response rating, Ragweed [8, 27]: 0
- Plant response rating, Ragweed [8, 28]: 20
- Plant response rating, Ryegrass, Italian [9, 27]: 60
- Plant response rating, Ryegrass, Italian [9, 28]: 90
- Plant response rating, Soybean (soybean (Glycine max) [10]; [27]): 0
- Plant response rating, Soybean (soybean (Glycine max) [10]; [28]): 0
- Plant response rating, Wheat [11, 27]: 0
- Plant response rating, Wheat [11, 28]: 60
- Plant response rating, Corn (corn (Zea mays) [12]; [29]): 0
- Plant response rating, Corn (corn (Zea mays) [12]; 125 g ai/ha, 0 to 100 scale): 30
- Plant response rating, Foxtail, Giant [13, 29]: 20
- Plant response rating, Foxtail, Giant ([13]; 125 g ai/ha, 0 to 100 scale): 60
- Plant response rating, Goosegrass [14, 29]: 0
- Plant response rating, Goosegrass ([14]; 125 g ai/ha, 0 to 100 scale): 30
- Plant response rating, Kochia (kochia (Bassia scoparia) [15]; [29]): 0
- Plant response rating, Kochia (kochia (Bassia scoparia) [15]; 125 g ai/ha, 0 to 100 scale): 60
- Plant response rating, Oat, Wild [16, 29]: 0
- Plant response rating, Oat, Wild ([16]; 125 g ai/ha, 0 to 100 scale): 20
- Plant response rating, Pigweed, Palmer [17, 29]: 0
- Plant response rating, Pigweed, Palmer ([17]; 125 g ai/ha, 0 to 100 scale): 20
- Plant response rating, Ragweed [18, 29]: 0
- Plant response rating, Ragweed ([18]; 125 g ai/ha, 0 to 100 scale): 50
- Plant response rating, Ryegrass, Italian [19, 29]: 0
- Plant response rating, Ryegrass, Italian ([19]; 125 g ai/ha, 0 to 100 scale): 30
- Plant response rating, Soybean (soybean (Glycine max) [20]; [29]): 10
- Plant response rating, Soybean (soybean (Glycine max) [20]; 125 g ai/ha, 0 to 100 scale): 30
- Plant response rating, Wheat [21, 29]: 0
- Plant response rating, Wheat ([21]; 125 g ai/ha, 0 to 100 scale): 40
- Plant response rating, Galium [22, 29]: 40
- Plant response rating, Galium ([22]; 125 g ai/ha, 0 to 100 scale): 80
- Plant response rating, Horseweed [23, 29]: 10
- Plant response rating, Horseweed ([23]; 125 g ai/ha, 0 to 100 scale): 20
- Plant response rating, Barnyardgrass (0 to 100 scale, 0 is no effect, 100 is complete control) [24]: 0
- Plant response rating, Ducksalad (0 to 100 scale, 0 is no effect, 100 is complete control) [25]: 60
- Plant response rating, Rice (0 to 100 scale, 0 is no effect, 100 is complete control) (rice (Oryza sativa)): 0

Compound: Cc1c(NS(=O)(=O)C(F)(F)F)cc(C2=NOC3(CCCC3)C2)c(C)c1C [Compound 380]
- Plant response rating, Corn (corn (Zea mays) [2]; [27]): 0
- Plant response rating, Corn (corn (Zea mays) [2]; [28]): 30
- Plant response rating, Foxtail, Giant [3, 27]: 80
- Plant response rating, Foxtail, Giant [3, 28]: 100
- Plant response rating, Goosegrass [4, 27]: 50
- Plant response rating, Goosegrass [4, 28]: 100
- Plant response rating, Kochia (kochia (Bassia scoparia) [5]; [27]): 0
- Plant response rating, Kochia (kochia (Bassia scoparia) [5]; [28]): 60
- Plant response rating, Oat, Wild [6, 27]: 20
- Plant response rating, Oat, Wild [6, 28]: 90
- Plant response rating, Pigweed, Palmer [7, 27]: 30
- Plant response rating, Pigweed, Palmer [7, 28]: 40
- Plant response rating, Ragweed [8, 27]: 0
- Plant response rating, Ragweed [8, 28]: 40
- Plant response rating, Ryegrass, Italian [9, 27]: 60
- Plant response rating, Ryegrass, Italian [9, 28]: 100
- Plant response rating, Soybean (soybean (Glycine max) [10]; [27]): 20
- Plant response rating, Soybean (soybean (Glycine max) [10]; [28]): 50
- Plant response rating, Wheat [11, 27]: 30
- Plant response rating, Wheat [11, 28]: 90
- Blackgrass plant response rating ([26]; 31 g ai/ha, postemergence): 20
- Plant response rating, Blackgrass ([26]; Postemergence, 125 g ai/ha, 10 days): 20
- Corn plant response rating (corn (Zea mays) [12]; [30]): 0
- Plant response rating, Corn (corn (Zea mays) [12]; [31]): 50
- Foxtail, Giant plant response rating [13, 30]: 10
- Plant response rating, Foxtail, Giant [13, 31]: 80
- Goosegrass plant response rating [14, 30]: 0
- Plant response rating, Goosegrass [14, 31]: 30
- Kochia plant response rating (kochia (Bassia scoparia) [15]; [30]): 30
- Plant response rating, Kochia (kochia (Bassia scoparia) [15]; [31]): 50
- Oat, Wild plant response rating [16, 30]: 0
- Plant response rating, Oat, Wild [16, 31]: 20
- Pigweed, Palmer plant response rating [17, 30]: 0
- Plant response rating, Pigweed, Palmer [17, 31]: 10
- Ragweed plant response rating [18, 30]: 40
- Plant response rating, Ragweed [18, 31]: 60
- Ryegrass, Italian plant response rating [19, 30]: 0
- Plant response rating, Ryegrass, Italian [19, 31]: 60
- Soybean plant response rating (soybean (Glycine max) [20]; [30]): 50
- Plant response rating, Soybean (soybean (Glycine max) [20]; [31]): 60
- Wheat plant response rating [21, 30]: 0
- Plant response rating, Wheat [21, 31]: 80
- Galium plant response rating [22, 30]: 50
- Plant response rating, Galium [22, 31]: 60
- Horseweed plant response rating [23, 30]: 30
- Plant response rating, Horseweed [23, 31]: 80
- Plant response rating, Barnyardgrass (0 to 100 scale, 0 is no effect, 100 is complete control) [24]: 98
- Plant response rating, Ducksalad (0 to 100 scale, 0 is no effect, 100 is complete control) [25]: 70
- Plant response rating, Rice (0 to 100 scale, 0 is no effect, 100 is complete control) (rice (Oryza sativa)): 10
